According to patent publication US12239619B2, “Composition for inducing pili formation in bacterium of genus Bifidobacterium” (MORINAGA MILK INDUSTRY CO., LTD., priority 2019, dated 2025):

Tests used:
Format in all cases: cell-based
[1] = test system: Bifidobacterium longum 1-1 strain; assay: Pili induction in cultured Bifidobacterium longum, Western blotting with anti-FimA antibody; settings: anaerobic, 37° C.; for pili formation by Western blotting: 10 μg/mL in GAM agar medium, 24 hours (Test Example 5)
Procedure: KUHIMM culture solution (900 mL) containing human feces used in Test Example 1 was fractionated in the order of MilliQ water, 50% methanol, and 100% methanol (250 mL of each) with an activated carbon column (resin volume: 45 mL). Of each fraction, 100 μL was collected in another container, dried under reduced pressure, and then redissolved in 50 μL of MilliQ water. Subsequently, the Bifidobacterium longum 1-1 strain was cultured in GAM medium, and 50 μL of the redissolved solution of the above fraction was added to 1 mL of the bacterial solution obtained by adjusting the above culture solution at OD600=0.1, and culture was performed at 37° C. for 24 hours. After culture, the cells were collected by centrifugation (4000×g, 5 minutes).
Bifidobacterium longum 1-1 strain was anaerobically cultured at 37° C. for 24 hours on GAM agar medium containing 10 μg/mL of aromatic amino acids or the amino acid metabolite produced by Clostridium sporogenes.

[2] = test system: Bifidobacterium longum 1-1 strain; assay: Scanning electron microscope observation of pili in cultured Bifidobacterium longum; settings: 10 μg/mL in GAM agar medium, anaerobic, 37° C., 24 hours
[3] = test system: human intestinal epithelial cell line (Caco-2 or HT29-MTX); assay: Adhesion of cultured Bifidobacterium longum to human intestinal epithelial cell line; settings: B. longum cultured with 10 μg/mL PPA, 15 hours, 2 hours
Procedure: Furthermore, the adhesion of the cultured cells to the human intestinal epithelial cell line (Caco-2 or HT29-MTX) was evaluated. Specifically, the Bifidobacterium longum 1-1 strain was cultured on GAM medium containing 10 μg/mL of PPA at 37° C. for 15 hours. The cells were centrifuged (4000×g, 1 min, 4° C.), collected, and suspended in Dulbecco's modified Eagle's medium (DMEM) at OD600=0.5. 0.2 mL of this bacterial solution was added to a chamber slide glass in which HT29-MTX or Caac-2 cells had been cultured in a single layer, and was allowed to stand at 37° C. for 2 hours. After washing with DMEM medium, Bifidobacterium longum adhered with 4% paraformaldehyde was fixed and stained with crystal violet. The number of bacteria per well was counted under a microscope.

SMILES | pili formation by Western blotting [1] | concentration in the medium that clearly induced the pili formation ([1]; GAM agar medium, 24 hours) | pili polymerization ([1]; GAM agar medium, final concentration 0.01 to 80 μg/mL, 24 hours) | pili observed with scanning electron microscope [2] | adhesion to human intestinal epithelial cell line, presence versus absence [3]
O=C(O)CCc1ccc(O)cc1 [3-(4-hydroxyphenyl)propionic acid] | pili formation was observed although less significant than in the former case |  |  |  | 
O=C(O)CCc1ccccc1 [3-phenylpropionic acid] | pili formation was observed | more than 0.1 μg/mL | induced pili polymerization dose-dependently | large fiber-shaped pili were observed | significantly larger
